Assay [1] addresses T1, mutant MGL (mut-MGLL 11-313 L179S L186S) (Homo sapiens, UniProt Q99685, L169S/L176S).
T1 construct: purified mutant MGL (mut-MGLL 11-313 L179S L186S)
T1 sequence (Q99685 1-303 L169S/L176S): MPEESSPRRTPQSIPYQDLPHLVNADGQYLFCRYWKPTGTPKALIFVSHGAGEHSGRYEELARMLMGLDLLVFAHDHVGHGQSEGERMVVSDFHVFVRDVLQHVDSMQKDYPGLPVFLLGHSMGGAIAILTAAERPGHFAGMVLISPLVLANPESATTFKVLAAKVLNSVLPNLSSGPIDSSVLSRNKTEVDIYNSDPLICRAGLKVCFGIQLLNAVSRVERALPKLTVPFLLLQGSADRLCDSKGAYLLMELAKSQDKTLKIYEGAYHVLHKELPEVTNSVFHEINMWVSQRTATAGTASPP
The assay can be described thus: MGL Enzyme Activity Assay, purified mutant MGL, 4MU-B substrate. In kind it is biochemical. Conditions: mutant MGL 5 nM, 4MU-B 10 μM, 37° C.; read-out: MGL mutant inh IC50. A digest of the protocol:
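Purified mutant MGL (5 nM final) with 10 μM 4MU-B in 20 mM PIPES pH 7.0, 150 mM NaCl, 0.001% Tween 20; compounds 17 to 0.0003 μM final. Fluorescence (ex 335/em 440 nm) followed 5 min at 37 °C; IC50 from fit of fractional activity versus inhibitor concentration.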

A further assay deals with T2, mutant MGL (Homo sapiens, UniProt Q99685, L169S/L176S).
T2 construct: purified mutant MGL (mut-MGLL 11-313 L179S L186S)
T2 sequence (Q99685 1-303 L169S/L176S): T1 sequence (Q99685 1-303 L169S/L176S)
The assay can be described thus: MGL ThermoFluor Assay - Mutant. Conditions: 0.07 mg/ml mutant MGL, 100 μM ANS, pH 7.0. Format: binding. As for the experimental part:
The ThermoFluor (TF) assay is a 384-well plate-based binding assay that measures thermal stability of proteins^1,2. The experiments were carried out using instruments available from Johnson & Johnson Pharmaceutical Research & Development, LLC. TF dye used in all experiments was 1,8-ANS (Invitrogen: A-47). Final TF assay conditions used for MGL studies were 0.07 mg/ml of mutant MGL, 100 μM ANS, 200 mM NaCl, 0.001% Tween-20 in 50 mM PIPES (pH=7.0).
Screening compound plates contained 100% DMSO compound solutions at a single concentration. […] Columns 12 and 24 were used as DMSO reference and contained no compound. […] Following compound dispension, protein and dye solutions were added to achieve the final assay volume of 3 μL.
Bar-coded assay plates were robotically loaded onto a thermostatically controlled PCR-type thermal block and then heated from 40 to 90° C. degrees at a ramp-rate of 1° C./min for all experiments. Fluorescence was measured by continuous illumination with UV light (Hamamatsu LC6), supplied via fiber optics and filtered through a band-pass filter (380-400 nm; >60D cutoff). Fluorescence emission of the entire 384-well plate was detected by measuring light intensity using a CCD camera (Sensys, Roper Scientific) filtered to detect 500±25 nm, resulting in simultaneous and independent readings of all 384 wells. A single image with 20-sec exposure time was collected at each temperature, and the sum of the pixel intensity in a given area of the assay plate was recorded vs temperature and fit to standard equations to yield the Tm^1. • 1.
The Kd values for certain compounds of Formula (I) were determined from a fit of the equation to the concentration-response plot of the fractional activity as a function of […]. For some experiments, quantitative NMR spectroscopy (qNMR) was used to measure concentration of the initial 100% DMSO compound solutions and, using the same fitting method, qKd values were determined.
(In general: DSF heats the sample and reads unfolding from a dye or from intrinsic fluorescence.)

In assay [2] the target is T3, wild type MGL (wt-MGLL 6H-11-313) (Homo sapiens, UniProt Q99685).
T3 construct: purified wild type MGL (wt-MGLL 6H-11-313); 6H (hexahistidine) (N)
T3 sequence (Q99685 1-303): T1 sequence (Q99685 1-303 L169S/L176S) with S169L, S176L
As to the kind of experiment: MGL Enzyme Activity Assay, purified wild type MGL, 4MU-B substrate. In kind it is biochemical. The conditions noted are these: wild type MGL 5 nM, 4MU-B 10 μM, 37° C.; read-out: MGL wild type inh IC50. Here is the method: All rate-based assays were performed in black 384-well polypropylene PCR microplates (Abgene) in a total volume of 30 μL. […] Final compound concentrations ranged from 17 to 0.0003 μM.
The IC50 values for the following compounds were determined using Microsoft Office Excel from a fit of the equation to the concentration-response plot of the fractional activity as a function of inhibitor concentration.

The target of the next assay is T4, MGL (Rattus norvegicus, UniProt Q8R431).
T4 construct: one g rat brain was homogenized using a Polytron homogenizer; from tissue; host or cells: rat brain homogenate
T4 sequence (Q8R431 1-303): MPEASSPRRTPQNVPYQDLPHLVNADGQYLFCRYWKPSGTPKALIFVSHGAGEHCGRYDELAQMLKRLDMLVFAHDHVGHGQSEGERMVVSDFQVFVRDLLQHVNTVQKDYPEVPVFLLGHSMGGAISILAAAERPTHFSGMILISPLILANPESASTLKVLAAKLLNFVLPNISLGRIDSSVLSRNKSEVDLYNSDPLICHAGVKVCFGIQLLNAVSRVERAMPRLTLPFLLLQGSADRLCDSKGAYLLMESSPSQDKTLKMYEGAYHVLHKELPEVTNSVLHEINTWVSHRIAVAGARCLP
The assay can be described thus: 2-AG Accumulation Assay in rat brain homogenate. Format: biochemical. Conditions: percent of vehicle; for activity at 10 µM: compound @10 µM, read-out: Rat Brain 2AG % VehCntrl (%) @10 µM; for activity at 1 µM: compound @1 µM, read-out: Rat Brain 2AG % VehCntrl (%) @1 µM.

Numbering of substitutions follows the chain as printed. Some results are limits rather than exact numbers.

In general, IC50 refers to the point on the concentration scale where inhibition reaches its midpoint. Broadly, the Kd is the constant that tells how readily two partners part at equilibrium. As to `CN(C(=O)c1cscn1)C1CN(C2CN(C(=O)c3cc4ccc(C(F)(F)F)cc4s3)C2)C1` [Cpd 48, N-Methyl-N-(1′-{[6-(trifluoromethyl)-1-benzothiophen-2-yl]carbonyl}-1,3′-biazetidin-3-yl)-1,3-thiazole-4-carboxamide], the IC50 in assay [1] was determined as 8120 nM; in assay [2], 12900 nM. Also, the Kd on mutant MGL is over 31000 nM.
As for `O=C(c1ccc2cc(-c3ccccc3)ccc2c1)N1CC(N2CC(N3Cc4ccccc4C3=O)C2)C1` [Cpd 69, 2-{1′-[(6-Phenylnaphthalen-2-yl)carbonyl]-1,3′-biazetidin-3-yl}-2,3-dihydro-1H-isoindol-1-one], the IC50 in assay [1] was 8 nM; in assay [2] it was under 5 nM. Moreover, the activity at 10 µM at MGL stood at 600%.
Consider `Cc1cc(-c2cccc(C(F)(F)F)c2)ccc1C(=O)N1CC(N2CC(N3Cc4scnc4C3=O)C2)C1` [Cpd 104, 5-(1′-{[3-Methyl-3′-(trifluoromethyl)biphenyl-4-yl]carbonyl}-1,3′-biazetidin-3-yl)-5,6-dihydro-4H-pyrrolo[3,4-d][1,3]thiazol-4-one], for which, at mutant MGL, the dissociation constant (Kd) was determined as 215 nM. The IC50 in assay [2] was found to be 66 nM.
For `Cc1cc(-c2cccc(C(F)(F)F)c2)ccc1C(=O)N1CC(N2CC(NC(=O)c3nccs3)C2)C1` [Cpd 58, N-(1′-{[3-Methyl-3′-(trifluoromethyl)biphenyl-4-yl]carbonyl}-1,3′-biazetidin-3-yl)-1,3-thiazole-2-carboxamide], the Kd on mutant MGL came out at 66.6 nM. The activity at 1 µM at MGL worked out at 157%. Further, the half-maximal inhibitory concentration (IC50) in assay [2] was determined as 8 nM.
Taken in the same sequence, the figures for `Cc1c(C(=O)N2CC(N3CC(N4Cc5scnc5C4=O)C3)C2)sc2cc(C(F)(F)F)ccc12` [Cpd 103, 5-(1′-{[3-Methyl-6-(trifluoromethyl)-1-benzothiophen-2-yl]carbonyl}-1,3′-biazetidin-3-yl)-5,6-dihydro-4H-pyrrolo[3,4-d][1,3]thiazol-4-one] were 33 nM, 360% and 21 nM.
For `Cc1cc(-c2ccc(C(F)(F)F)cc2)ccc1C(=O)N1CC(N2CC(N3Cc4scnc4C3=O)C2)C1` [Cpd 105, 5-(1′-{[3-Methyl-4′-(trifluoromethyl)biphenyl-4-yl]carbonyl}-1,3′-biazetidin-3-yl)-5,6-dihydro-4H-pyrrolo[3,4-d][1,3]thiazol-4-one], on mutant MGL, the Kd came to 3640 nM. Moreover, the IC50 in assay [2] was determined as 887 nM.
`O=C(NC1CN(C2CN(C(=O)c3ccc(Cc4ccccc4)cc3)C2)C1)c1nccs1` [Cpd 10, N-{1′-[(4-Benzylphenyl)carbonyl]-1,3′-biazetidin-3-yl}-1,3-thiazole-2-carboxamide]: the IC50 turned out to be 15 nM in assay [1] and 70 nM in assay [2]. Further, the activity at 10 µM at MGL is 659%.
Regarding `O=C(NC1CN(C2CN(C(=O)c3ccc4c(ccn4-c4ccc(F)cc4F)c3)C2)C1)c1nccs1` [Cpd 55, N-(1′-{[1-(2,4-Difluorophenyl)-1H-indol-5-yl]carbonyl}-1,3′-biazetidin-3-yl)-1,3-thiazole-2-carboxamide], the activity at 1 µM on MGL was 353%. Further, the IC50 in assay [2] is 5 nM.
The matching figures for `O=C(NC1CN(C2CN(C(=O)c3ccc4c(ccn4-c4ccc(F)c(F)c4)c3)C2)C1)c1cscn1` [Cpd 54, N-(1′-{[1-(3,4-Difluorophenyl)-1H-indol-5-yl]carbonyl}-1,3′-biazetidin-3-yl)-1,3-thiazole-4-carboxamide]: 315% and 5 nM.
Take `O=C(NC1CN(C2CN(C(=O)c3ccc(-c4cccc(C(F)(F)F)c4)cc3F)C2)C1)c1nccs1` [Cpd 64, N-(1′-{[3-Fluoro-3′-(trifluoromethyl)biphenyl-4-yl]carbonyl}-1,3′-biazetidin-3-yl)-1,3-thiazole-2-carboxamide]: on mutant MGL, the Kd turned out to be 20 nM. The activity at 1 µM at MGL worked out at 253%. Moreover, the IC50 in assay [2] was under 5 nM.
Turning to `O=C(NC1CN(C2CN(C(=O)c3ccc(-c4ccc(C(F)(F)F)cc4)cc3F)C2)C1)c1nccs1` [Cpd 59, N-(1′-{[3-Fluoro-4′-(trifluoromethyl)biphenyl-4-yl]carbonyl}-1,3′-biazetidin-3-yl)-1,3-thiazole-2-carboxamide], the activity at 1 µM on MGL is 265%. The half-inhibitory concentration (IC50) in assay [2] worked out at 10 nM.
For `O=C(NC1CN(C2CN(C(=O)c3ccc(Cc4ccc(C(F)(F)F)cc4)cc3)C2)C1)c1nccs1` [Cpd 16, N-[1′-({4-[4-(Trifluoromethyl)benzyl]phenyl}carbonyl)-1,3′-biazetidin-3-yl]-1,3-thiazole-2-carboxamide], the IC50 in assay [1] was 32 nM; in assay [2], under 5 nM. For the same molecule, the activity at 10 µM at MGL turned out to be 123%.
Taken in the same sequence, the figures for `O=C(c1cc2ccc(-c3ccccc3)cc2s1)N1CC(N2CC(N3Cc4ccccc4C3=O)C2)C1` [Cpd 98, 2-{1′-[(6-Phenyl-1-benzothiophen-2-yl)carbonyl]-1,3′-biazetidin-3-yl}-2,3-dihydro-1H-isoindol-1-one] were under 5 nM, under 5 nM and 613%.
`O=C(c1ccc2c(-c3ccccc3)cccc2c1)N1CC(N2CC(N3Cc4ccccc4C3=O)C2)C1` [Cpd 97, 2-{1′-[(5-Phenylnaphthalen-2-yl)carbonyl]-1,3′-biazetidin-3-yl}-2,3-dihydro-1H-isoindol-1-one]: the IC50 in assay [1] and in assay [2] was under 5 nM throughout. Moreover, the activity at 10 µM on MGL was determined as 518%.
As to `O=C(c1ccc2c(ccn2-c2ccc(C(F)(F)F)cc2)c1)N1CC(N2CC(N3Cc4scnc4C3=O)C2)C1` [Cpd 106, 5-[1′-({1-[4-(Trifluoromethyl)phenyl]-1H-indol-5-yl}carbonyl)-1,3′-biazetidin-3-yl]-5,6-dihydro-4H-pyrrolo[3,4-d][1,3]thiazol-4-one], the activity at 1 µM at MGL worked out at 414%. Further, in assay [2], the IC50 is under 5 nM.
The matching figures for `O=C(NC1CN(C2CN(C(=O)c3ccc4c(ccn4-c4ccc(F)cc4F)c3)C2)C1)c1cscn1` [Cpd 60, N-(1′-{[1-(2,4-Difluorophenyl)-1H-indol-5-yl]carbonyl}-1,3′-biazetidin-3-yl)-1,3-thiazole-4-carboxamide]: 273% and 11 nM.
